From patent US8927717B1, “Thiochromeno[2,3-c]quinolin-12-one derivatives, preparation method and application thereof” (National Defense Medical Center, priority 2014, dated 2015)

Columns and labels:
TOP I (Topoisomerase I) [1] = biological target: T1, TOP I (Topoisomerase I) (Homo sapiens, UniProt P11387); assay: TOP I mediated supercoiled DNA relaxation assay; format: biochemical; conditions: primary assay at 25 and/or 50 μM
T1 construct: purchased TopoGEN TG2005H
T1 sequence (P11387 1-765): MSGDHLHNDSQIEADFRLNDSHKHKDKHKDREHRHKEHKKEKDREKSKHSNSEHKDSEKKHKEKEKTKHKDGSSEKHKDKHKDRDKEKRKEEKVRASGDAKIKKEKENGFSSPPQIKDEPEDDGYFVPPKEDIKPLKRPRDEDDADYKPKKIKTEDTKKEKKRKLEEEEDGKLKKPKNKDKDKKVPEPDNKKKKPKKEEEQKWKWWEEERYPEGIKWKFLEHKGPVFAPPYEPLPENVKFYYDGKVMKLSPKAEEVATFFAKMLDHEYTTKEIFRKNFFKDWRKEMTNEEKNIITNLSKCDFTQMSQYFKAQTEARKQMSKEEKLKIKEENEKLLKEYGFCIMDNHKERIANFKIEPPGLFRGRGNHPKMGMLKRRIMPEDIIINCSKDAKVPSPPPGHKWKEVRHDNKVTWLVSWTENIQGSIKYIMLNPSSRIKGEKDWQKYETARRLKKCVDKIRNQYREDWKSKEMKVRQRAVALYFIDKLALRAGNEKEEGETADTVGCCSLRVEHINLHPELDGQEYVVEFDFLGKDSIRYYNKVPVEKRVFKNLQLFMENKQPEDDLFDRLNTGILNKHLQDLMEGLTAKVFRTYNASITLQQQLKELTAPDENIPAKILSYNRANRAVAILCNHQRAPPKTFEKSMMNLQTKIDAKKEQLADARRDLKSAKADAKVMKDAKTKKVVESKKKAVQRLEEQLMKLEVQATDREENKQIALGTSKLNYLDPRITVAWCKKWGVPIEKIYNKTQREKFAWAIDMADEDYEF
Procedure: According to the cell cytotoxicity, compounds 5, 7, 8, 16, 19, N2, N7, N8, N9, N14-N19, and N25 were also selected for primary TOP I and II activities assays at 25 and/or 50 μM (FIG. 2-4).

MOLT-4 = format: cell-based; conditions: MOLT-4; for Growth percent: 10^−5 molar
SR = format: cell-based; conditions: SR; for Growth percent: 10^−5 molar
A549/ATCC = format: cell-based; conditions: A549/ATCC; for Growth percent: 10^−5 molar
HOP-62 = format: cell-based; conditions: HOP-62; for Growth percent: 10^−5 molar
HOP-92 = format: cell-based; conditions: HOP-92
NCI-H226 = format: cell-based; conditions: NCI-H226; for Growth percent: 10^−5 molar
HCC-2998 = format: cell-based; conditions: HCC-2998; for Growth percent: 10^−5 molar
HCT-116 = format: cell-based; conditions: HCT-116; for Growth percent: 10^−5 molar
HCT-15 = format: cell-based; conditions: HCT-15; for Growth percent: 10^−5 molar
SF-539 = format: cell-based; conditions: SF-539; for Growth percent: 10^−5 molar
MDA-MB-435 = format: cell-based; conditions: MDA-MB-435; for GI50 / CC50: Homo sapiens; for GI50 / CC50 / TGI: five dose; for CC50: read-out: LC50 (the source's name); for Growth percent: 10^−5 molar
SK-MEL-2 = format: cell-based; conditions: SK-Mel-2
UACC-257 = format: cell-based; conditions: UACC-257; for GI50 / CC50: Homo sapiens; for GI50 / CC50 / TGI: five dose; for CC50: read-out: LC50 (the source's name); for Growth percent: 10^−5 molar
IGROV1 = format: cell-based; conditions: IGROV1; for Growth percent: 10^−5 molar
OVCAR-3 = format: cell-based; conditions: OVCAR-3
OVCAR-4 = format: cell-based; conditions: OVCAR-4; for GI50: Homo sapiens; for GI50 / TGI: five dose; for Growth percent: 10^−5 molar
SK-OV-3 = format: cell-based; conditions: SK-OV-3; for GI50 / CC50: Homo sapiens; for GI50 / CC50 / TGI: five dose; for CC50: read-out: LC50 (the source's name); for Growth percent: 10^−5 molar
A498 = format: cell-based; conditions: A498; for Growth percent: 10^−5 molar; for TGI / GI50 / CC50: five dose; for GI50 / CC50: Homo sapiens; for CC50: read-out: LC50 (the source's name)
CAKI-1 = format: cell-based; conditions: CAKI-1; for TGI / GI50 / CC50: five dose; for GI50 / CC50: Homo sapiens; for CC50: read-out: LC50 (the source's name)
BT-549 = format: cell-based; conditions: BT-549; for Growth percent: 10^−5 molar
TOP I (Topoisomerase I) [2] = biological target: T1, TOP I (Topoisomerase I); assay: TOP I mediated supercoiled DNA relaxation assay; format: biochemical; conditions: five different concentrations; TopoGEN TG2005H, TG-2000H-1
[3] = biological target: T2, TOP II (Topoisomerase II) (Homo sapiens, UniProt P11388); assay: TOP II-catalyzed relaxation of plasmid DNA assay; format: biochemical
T2 construct: purchased TopoGEN TG-2000H-1
T2 sequence (P11388 whole entry): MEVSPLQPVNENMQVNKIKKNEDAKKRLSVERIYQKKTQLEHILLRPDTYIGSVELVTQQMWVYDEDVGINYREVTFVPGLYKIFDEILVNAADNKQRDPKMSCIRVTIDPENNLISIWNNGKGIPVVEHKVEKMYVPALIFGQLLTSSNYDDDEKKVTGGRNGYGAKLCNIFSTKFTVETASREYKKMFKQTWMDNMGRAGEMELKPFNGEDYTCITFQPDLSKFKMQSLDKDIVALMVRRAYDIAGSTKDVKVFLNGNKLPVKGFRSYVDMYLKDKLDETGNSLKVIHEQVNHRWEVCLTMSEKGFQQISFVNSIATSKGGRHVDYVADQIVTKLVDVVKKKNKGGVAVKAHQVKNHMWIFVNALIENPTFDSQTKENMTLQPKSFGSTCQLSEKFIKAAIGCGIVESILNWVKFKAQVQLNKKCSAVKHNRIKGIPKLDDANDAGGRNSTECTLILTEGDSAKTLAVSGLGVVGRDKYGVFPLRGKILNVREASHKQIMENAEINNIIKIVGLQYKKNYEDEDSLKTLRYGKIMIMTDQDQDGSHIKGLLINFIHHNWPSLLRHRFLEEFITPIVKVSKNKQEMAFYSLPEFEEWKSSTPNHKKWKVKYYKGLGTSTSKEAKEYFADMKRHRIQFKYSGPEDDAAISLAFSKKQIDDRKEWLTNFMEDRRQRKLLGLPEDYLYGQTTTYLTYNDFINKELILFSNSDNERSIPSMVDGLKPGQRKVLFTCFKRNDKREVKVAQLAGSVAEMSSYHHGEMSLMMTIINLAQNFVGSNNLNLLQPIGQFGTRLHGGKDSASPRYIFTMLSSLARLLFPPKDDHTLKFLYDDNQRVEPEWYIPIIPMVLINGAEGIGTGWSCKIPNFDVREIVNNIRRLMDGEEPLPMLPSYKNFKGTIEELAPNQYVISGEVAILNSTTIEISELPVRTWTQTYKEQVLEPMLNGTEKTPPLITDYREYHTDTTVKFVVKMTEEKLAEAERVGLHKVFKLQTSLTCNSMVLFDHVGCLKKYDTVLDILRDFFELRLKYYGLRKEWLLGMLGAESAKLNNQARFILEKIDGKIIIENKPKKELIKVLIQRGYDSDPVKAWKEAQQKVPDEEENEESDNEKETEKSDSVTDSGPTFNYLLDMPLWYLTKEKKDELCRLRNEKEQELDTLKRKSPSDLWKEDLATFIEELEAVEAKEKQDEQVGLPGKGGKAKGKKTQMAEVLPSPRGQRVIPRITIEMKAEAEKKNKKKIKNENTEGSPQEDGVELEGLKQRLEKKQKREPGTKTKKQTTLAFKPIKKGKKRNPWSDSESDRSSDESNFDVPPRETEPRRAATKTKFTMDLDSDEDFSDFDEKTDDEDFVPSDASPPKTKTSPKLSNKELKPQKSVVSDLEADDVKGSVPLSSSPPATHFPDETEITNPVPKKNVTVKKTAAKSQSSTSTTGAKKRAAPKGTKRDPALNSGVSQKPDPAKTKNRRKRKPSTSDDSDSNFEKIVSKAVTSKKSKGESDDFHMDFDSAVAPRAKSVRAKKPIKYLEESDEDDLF
Procedure: We also performed TOP II-catalyzed relaxation of plasmid DNA assays (FIG. 5-7) to evaluate if compounds could inhibit TOP II. […] The IC50 value of compounds 7, N7, N8, N14, N15, N18, and N19 were about 10, 10, 1, 10, 5, 1, and 1 μM, respectively (detect by TopoGEN TG2005H, TG-2000H-1).

[4] = Homo sapiens, five dose, read-out: LC50 (the source's name)
[5] = Homo sapiens, IGROV-1, five dose

## O=c1c2cc(Cl)ccc2sc2c(NCc3ccccc3)nc3ccccc3c12 [Compound N25, 6-(Benzylamino)-10-chloro-12H-thiochromeno[2,3-c]quinolin-12-one]
TOP I (Topoisomerase I) [1]
  inhibitory effect in TOP I activity assay compared with CPT: more potent inhibitory effects than CPT
MOLT-4; Homo sapiens, five dose
  GI50: > 100 µM
MOLT-4; [4]
  CC50: > 100 µM
MOLT-4
  Growth percent: 92.42%
MOLT-4; five dose
  TGI: >100 µM
SR; Homo sapiens, five dose
  GI50: > 100 µM
  LC50 (50% lethal concentration): > 100 µM
SR
  Growth percent: 85.46%
SR; five dose
  TGI: >100 µM
A549/ATCC
  Growth percent: 68.33%
A549/ATCC; five dose
  TGI: >100 µM
A549/ATCC; Homo sapiens, five dose
  GI50: 14.4 µM
  LC50: > 100 µM
HOP-62
  Growth percent: 66.53%
HOP-62; five dose
  TGI: 5.92 µM
HOP-62; Homo sapiens, five dose
  GI50: 2.43 µM
  LC50 (lethal concentration 50): 27.7 µM
HOP-92; five dose
  TGI: 7.53 µM
HOP-92; Homo sapiens, five dose
  GI50: 1.75 µM
  LC50: 53.6 µM
NCI-H226; Homo sapiens, five dose
  GI50: 1.84 µM
  LC50 (concentration giving 50% net cell kill): > 100 µM
NCI-H226
  Growth percent: 79.35%
HCC-2998
  Growth percent: 95.77%
HCC-2998; five dose
  TGI: >100 µM
HCC-2998; Homo sapiens, five dose
  GI50: > 100 µM
  LC50: > 100 µM
HCT-116
  Growth percent: 66.87%
HCT-116; five dose
  TGI: >100 µM
HCT-116; Homo sapiens, five dose
  GI50: 5.59 µM
  LC50 (concentration killing 50% of cells): > 100 µM
HCT-15
  Growth percent: 71.76%
HCT-15; five dose
  TGI: >100 µM
HCT-15; Homo sapiens, five dose
  GI50: 8.75 µM
  LC50: > 100 µM
SF-539; Homo sapiens, five dose
  GI50: 4.49 µM
  LC50: > 100 µM
SF-539
  Growth percent: 80.59%
SF-539; five dose
  TGI: 46.40 µM
MDA-MB-435
  GI50: > 100 µM
  CC50: > 100 µM
  Growth percent: 89.58%
  TGI: >100 µM
SK-MEL-2; Homo sapiens, five dose
  GI50: 10.6 µM
  LC50: 96.5 µM
SK-MEL-2; five dose
  TGI: 31.90 µM
UACC-257
  GI50: > 100 µM
  CC50: > 100 µM
  Growth percent: 83.24%
  TGI: >100 µM
IGROV1; [5]
  GI50: 4.64 µM
IGROV1; Homo sapiens, IGROV-1, five dose, read-out: LC50 (the source's name)
  CC50: > 100 µM
IGROV1
  Growth percent: 53.42%
IGROV1; five dose
  TGI: >100 µM
OVCAR-3; 10^−5 molar
  Growth percent: 76.59%
OVCAR-4
  GI50: 15 µM
  Growth percent: 27.24%
  TGI: 3.74 µM
SK-OV-3
  GI50: 3.56 µM
  CC50: > 100 µM
  Growth percent: 36.71%
  TGI: 13.90 µM
A498
  Growth percent: 86.46%
  TGI: 39.20 µM
  GI50: 8.05 µM
  CC50: > 100 µM
CAKI-1; 10^−5 molar
  Growth percent: 80.38%
CAKI-1
  TGI: >100 µM
  GI50: 6.07 µM
  CC50: > 100 µM
BT-549
  Growth percent: 97.19%
BT-549; five dose
  TGI: >100 µM
BT-549; Homo sapiens, five dose
  GI50: 20.5 µM
BT-549; [4]
  CC50: > 100 µM
TOP I (Topoisomerase I) [2]
  IC50: ~25 µM

## O=c1c2cc(Cl)ccc2sc2c(NCCCNCCO)nc3ccccc3c12 [Compound N19, 10-Chloro-6-((3-((2-hydroxyethyl)amino)propyl)amino)-12H-thiochromeno[2,3-c]quinolin-12-one]
[3]; five different concentrations, TopoGEN TG2005H, TG-2000H-1, read-out: IC50 value, TOP II mediated supercoiled DNA relaxation
  IC50: ~1 µM
[3]; primary assay at 25 and/or 50 μM
  inhibitory effect in TOP II relaxation assay compared with VP-16: more potent inhibitory effects than the positive agent VP-16
MOLT-4; Homo sapiens, five dose
  GI50: 1.88 µM
MOLT-4
  Growth percent: −47.57%
SR; Homo sapiens, five dose
  GI50: 1.98 µM
SR
  Growth percent: −51.40%
SR; five dose
  TGI: 4.55 µM
A549/ATCC
  Growth percent: −64.45%
A549/ATCC; five dose
  TGI: 3.30 µM
A549/ATCC; Homo sapiens, five dose
  GI50: 1.76 µM
HOP-62
  Growth percent: 36.97%
HOP-62; five dose
  TGI: 2.89 µM
HOP-62; Homo sapiens, five dose
  GI50: 1.38 µM
HOP-92; 10^−5 molar
  Growth percent: 23.01%
HOP-92; five dose
  TGI: 4.58 µM
HOP-92; Homo sapiens, five dose
  GI50: 1.23 µM
NCI-H226; Homo sapiens, five dose
  GI50: 1.9 µM
NCI-H226
  Growth percent: 86.75%
NCI-H226; five dose
  TGI: 4.46 µM
HCC-2998
  Growth percent: −74.47%
HCC-2998; five dose
  TGI: 3.42 µM
HCC-2998; Homo sapiens, five dose
  GI50: 1.58 µM
HCT-116
  Growth percent: −91.19%
HCT-116; five dose
  TGI: 3.05 µM
HCT-116; Homo sapiens, five dose
  GI50: 1.6 µM
HCT-15
  Growth percent: −76.47%
HCT-15; five dose
  TGI: 3.25 µM
HCT-15; Homo sapiens, five dose
  GI50: 1.61 µM
SF-539; Homo sapiens, five dose
  GI50: 1.7 µM
SF-539
  Growth percent: −47.59%
SF-539; five dose
  TGI: 3.22 µM
MDA-MB-435
  GI50: 1.59 µM
  CC50: 5.62 µM
  Growth percent: −88.95%
  TGI: 2.99 µM
SK-MEL-2; Homo sapiens, five dose
  GI50: 2.05 µM
SK-MEL-2; 10^−5 molar
  Growth percent: 53.64%
SK-MEL-2; five dose
  TGI: 3.77 µM
UACC-257
  GI50: 1.86 µM
  CC50: 6.33 µM
  Growth percent: 45.70%
  TGI: 3.44 µM
IGROV1; [5]
  GI50: 1.66 µM
IGROV1
  Growth percent: −43.25%
IGROV1; five dose
  TGI: 3.60 µM
OVCAR-3; Homo sapiens, five dose
  GI50: 1.79 µM
OVCAR-3; five dose
  TGI: 3.51 µM
OVCAR-4
  GI50: 1.6 µM
  Growth percent: 12.32%
  TGI: 3.23 µM
SK-OV-3
  GI50: 1.68 µM
  CC50: 6.8 µM
  Growth percent: 76.48%
  TGI: 3.38 µM
A498
  Growth percent: 61.88%
  TGI: 3.62 µM
  GI50: 1.27 µM
  CC50: 15 µM
CAKI-1
  TGI: 2.69 µM
  GI50: 1.33 µM
  CC50: 5.45 µM
BT-549
  Growth percent: 98.48%
BT-549; five dose
  TGI: 3.15 µM
BT-549; Homo sapiens, five dose
  GI50: 1.67 µM
TOP I (Topoisomerase I) [2]
  IC50: ~5 µM
